Assay results reported in ChEMBL document CHEMBL3244288, “Antimalarials. 11. Synthesis of 3- and 5-aminoquinolines as potential antimalarials” (J Med Chem, 1979).
Calls of active or inactive are those of the source. The calls are words filed in the database; no cut-off is given here.

How the values were obtained:
Format in all cases: functional, organism-based
[1] = system: Plasmodium cynomolgi; experiment: Antimalarial activity against sporozoite form of Plasmodium cynomolgi infected in juvenile rhesus monkey assessed as radical curative effect
[2] = system: Plasmodium berghei; experiment: Antimalarial activity against Plasmodium berghei infected in mouse assessed as increase in mean survival time at 640 mg/kg, sc; parameters: dose 640 mg/kg
[3] = system: Leishmania donovani; experiment: Antileishmanial activity against Leishmania donovani infected in golden hamster administered for 8 days
[4] = system: Plasmodium cynomolgi; experiment: Antimalarial activity against sporozoite form of Plasmodium cynomolgi infected in juvenile rhesus monkey assessed as radical curative effect at 10 mg/kg, administered 6 doses; parameters: dose 10 mg/kg

Row | SMILES | Activity [1] | Activity [2] | Activity [3] | Activity [4]
1 | COc1cc(NC(C)CCCN)c2nccc(C)c2c1 (configuration not stated) | Active |  |  | 
2 | COc1ccc2ncc(NC(C)CCCN)c(C)c2c1 (configuration not stated) |  | inactive | inactive | 
3 | CCN(CC)CCCC(C)Nc1ccc(OC)c2ncccc12 (configuration not stated) | inactive | inactive | inactive | 
4 | COc1cc(NC(C)CCCN)c2ncccc2c1 (configuration not stated) | Active |  |  | 
5 | COc1cc2cc(NC(C)CCCN)cnc2cc1OC (configuration not stated) |  | inactive | inactive | 
6 | COc1cc2ncc(NC(C)CCCN)c(C)c2cc1OC (configuration not stated) |  | inactive | inactive | 
7 | CCN(CC)CCNc1ccc(OC)c2ncccc12 | inactive | inactive | inactive | 
8 | COc1ccc(NC(C)CCCN)c2cccnc12 (configuration not stated) |  | inactive | inactive | Active
